Measured values: PMC10511319, “Bacterial pathogens deliver water- and solute-permeable channels to plant cells” (Nature, 2023)

Experiments:
AvrE [1] = target: T1, AvrE (Pseudomonas syringae group genomosp. 3, UniProt Q887C9); experiment: oocyte fluorescent dye uptake; format: cell-based; settings: 5 µg/ml fluorescein in ND96 saline; 20 ng avrE cRNA; permeation through channel
T1 construct: full-length untagged ORF in pGH19, cRNA-injected Xenopus laevis oocytes

DspE = target: T2, DspE (Erwinia amylovora, UniProt O54581); format: cell-based; settings: current at 50 mV test pulse; ND96 saline, pH 7.5; channel block
T2 construct: full-length untagged ORF in pGH19, cRNA-injected Xenopus laevis oocytes; strain of oocyte clone not restated

DspE (MBP–DspE) = target: T3, DspE (MBP–DspE) (Erwinia amylovora, UniProt O54581); experiment: liposome carboxyfluorescein release; format: biochemical; settings: soybean liposomes; 0.05–0.15 µM DspE; 20 mM HEPES, 300 mM NaCl, pH 8.0; channel block
T3 construct: full-length DspE fused to MBP-His8-PPX-Flag; made in E. coli BL21(DE3)

AvrE [2] = target: T1, AvrE; experiment: two-electrode voltage clamp, Xenopus oocytes; format: cell-based; settings: current at 50 mV test pulse; ND96 saline, pH 7.5; channel block

T2 sequence (O54581 whole entry): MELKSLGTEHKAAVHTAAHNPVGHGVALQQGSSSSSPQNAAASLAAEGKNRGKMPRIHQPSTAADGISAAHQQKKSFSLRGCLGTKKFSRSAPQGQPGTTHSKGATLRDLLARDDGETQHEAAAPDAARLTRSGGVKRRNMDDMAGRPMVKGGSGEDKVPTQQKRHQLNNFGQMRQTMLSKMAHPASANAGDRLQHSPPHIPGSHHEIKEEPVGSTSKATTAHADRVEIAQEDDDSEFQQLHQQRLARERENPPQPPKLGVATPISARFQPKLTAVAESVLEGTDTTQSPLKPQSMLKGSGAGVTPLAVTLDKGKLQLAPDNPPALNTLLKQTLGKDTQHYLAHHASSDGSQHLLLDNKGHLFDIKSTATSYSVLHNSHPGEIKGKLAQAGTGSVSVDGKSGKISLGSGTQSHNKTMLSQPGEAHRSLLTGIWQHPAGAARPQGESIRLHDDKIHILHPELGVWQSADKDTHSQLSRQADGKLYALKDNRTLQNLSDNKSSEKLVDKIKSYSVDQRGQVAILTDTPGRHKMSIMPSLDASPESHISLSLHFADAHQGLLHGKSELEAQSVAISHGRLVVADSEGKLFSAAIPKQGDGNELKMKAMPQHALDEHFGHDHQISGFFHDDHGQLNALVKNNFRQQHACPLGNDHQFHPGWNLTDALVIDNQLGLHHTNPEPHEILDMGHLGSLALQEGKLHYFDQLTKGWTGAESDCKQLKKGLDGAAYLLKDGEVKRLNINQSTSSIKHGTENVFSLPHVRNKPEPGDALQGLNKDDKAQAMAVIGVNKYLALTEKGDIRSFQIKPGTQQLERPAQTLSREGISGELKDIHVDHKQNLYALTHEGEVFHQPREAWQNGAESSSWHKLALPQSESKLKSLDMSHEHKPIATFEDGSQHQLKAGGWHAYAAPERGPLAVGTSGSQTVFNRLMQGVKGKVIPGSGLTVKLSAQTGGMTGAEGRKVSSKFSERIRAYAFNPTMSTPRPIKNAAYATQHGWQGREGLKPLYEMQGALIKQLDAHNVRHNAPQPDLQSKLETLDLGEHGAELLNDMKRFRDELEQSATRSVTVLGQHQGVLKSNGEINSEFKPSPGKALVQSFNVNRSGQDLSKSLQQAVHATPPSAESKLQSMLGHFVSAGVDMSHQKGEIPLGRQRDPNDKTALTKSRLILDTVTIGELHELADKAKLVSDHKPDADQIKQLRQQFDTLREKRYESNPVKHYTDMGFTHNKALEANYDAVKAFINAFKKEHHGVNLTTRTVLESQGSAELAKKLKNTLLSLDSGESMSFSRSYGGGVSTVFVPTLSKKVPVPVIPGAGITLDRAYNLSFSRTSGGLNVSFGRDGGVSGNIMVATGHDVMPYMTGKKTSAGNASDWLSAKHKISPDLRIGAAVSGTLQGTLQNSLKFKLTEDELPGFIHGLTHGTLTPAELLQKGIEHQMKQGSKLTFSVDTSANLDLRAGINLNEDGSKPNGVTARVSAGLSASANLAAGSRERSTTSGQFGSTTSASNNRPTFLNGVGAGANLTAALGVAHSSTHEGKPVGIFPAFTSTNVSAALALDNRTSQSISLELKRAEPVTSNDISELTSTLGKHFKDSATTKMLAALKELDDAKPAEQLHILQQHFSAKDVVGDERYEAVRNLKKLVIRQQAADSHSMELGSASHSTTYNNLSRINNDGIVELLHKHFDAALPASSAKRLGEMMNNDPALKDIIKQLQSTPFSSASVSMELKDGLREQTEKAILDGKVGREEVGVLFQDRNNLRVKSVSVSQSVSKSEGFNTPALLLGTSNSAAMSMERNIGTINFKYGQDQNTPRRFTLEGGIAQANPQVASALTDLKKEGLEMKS
T1 sequence (Q887C9 whole entry): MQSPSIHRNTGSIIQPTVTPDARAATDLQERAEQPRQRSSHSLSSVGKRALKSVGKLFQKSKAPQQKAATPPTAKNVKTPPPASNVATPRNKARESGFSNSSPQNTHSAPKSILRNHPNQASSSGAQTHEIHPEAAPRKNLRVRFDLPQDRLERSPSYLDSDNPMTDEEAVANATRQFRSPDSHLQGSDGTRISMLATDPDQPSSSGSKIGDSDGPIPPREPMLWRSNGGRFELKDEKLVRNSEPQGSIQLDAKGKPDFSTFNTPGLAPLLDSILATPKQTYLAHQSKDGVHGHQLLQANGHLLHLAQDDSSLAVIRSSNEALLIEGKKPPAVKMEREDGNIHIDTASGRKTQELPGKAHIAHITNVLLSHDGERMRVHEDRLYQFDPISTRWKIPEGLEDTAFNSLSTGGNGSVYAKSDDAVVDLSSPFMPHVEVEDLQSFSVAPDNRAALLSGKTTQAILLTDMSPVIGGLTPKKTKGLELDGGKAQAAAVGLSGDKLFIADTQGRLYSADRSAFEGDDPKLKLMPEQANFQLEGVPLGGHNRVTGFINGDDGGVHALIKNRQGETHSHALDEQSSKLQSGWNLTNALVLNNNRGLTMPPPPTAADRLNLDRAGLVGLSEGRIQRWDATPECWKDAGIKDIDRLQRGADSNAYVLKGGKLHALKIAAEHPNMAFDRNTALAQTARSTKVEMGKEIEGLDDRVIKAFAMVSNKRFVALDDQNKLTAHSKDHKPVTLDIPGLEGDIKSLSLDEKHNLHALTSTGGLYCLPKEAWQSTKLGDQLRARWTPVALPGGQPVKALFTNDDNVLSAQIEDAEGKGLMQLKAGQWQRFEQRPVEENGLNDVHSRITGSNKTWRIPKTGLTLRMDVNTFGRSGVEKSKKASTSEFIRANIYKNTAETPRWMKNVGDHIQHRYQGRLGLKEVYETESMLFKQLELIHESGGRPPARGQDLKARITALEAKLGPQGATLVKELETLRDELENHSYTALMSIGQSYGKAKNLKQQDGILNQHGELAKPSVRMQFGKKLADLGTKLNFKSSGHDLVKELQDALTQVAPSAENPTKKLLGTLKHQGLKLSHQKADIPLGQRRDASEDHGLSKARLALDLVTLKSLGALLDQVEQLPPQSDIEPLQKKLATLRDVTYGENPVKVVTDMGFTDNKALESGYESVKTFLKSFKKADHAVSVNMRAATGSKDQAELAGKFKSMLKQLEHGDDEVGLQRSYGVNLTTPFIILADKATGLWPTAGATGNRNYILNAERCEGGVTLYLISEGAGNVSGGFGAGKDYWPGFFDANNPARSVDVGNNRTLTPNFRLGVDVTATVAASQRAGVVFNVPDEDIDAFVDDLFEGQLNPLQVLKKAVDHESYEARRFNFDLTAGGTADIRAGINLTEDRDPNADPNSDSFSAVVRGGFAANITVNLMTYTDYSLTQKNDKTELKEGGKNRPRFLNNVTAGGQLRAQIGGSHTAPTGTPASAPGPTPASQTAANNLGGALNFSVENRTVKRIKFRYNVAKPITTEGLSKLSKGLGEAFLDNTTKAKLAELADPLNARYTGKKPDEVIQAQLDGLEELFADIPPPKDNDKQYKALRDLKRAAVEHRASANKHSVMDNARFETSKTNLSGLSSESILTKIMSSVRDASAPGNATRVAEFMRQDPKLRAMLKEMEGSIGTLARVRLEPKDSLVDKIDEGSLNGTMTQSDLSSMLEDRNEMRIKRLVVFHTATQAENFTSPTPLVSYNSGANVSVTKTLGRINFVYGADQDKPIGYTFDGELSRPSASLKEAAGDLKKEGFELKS

O=C1OC2(c3ccc(O)cc3Oc3cc(O)ccc32)c2ccccc21 [fluorescein]
oocyte fluorescent dye uptake (AvrE [1]): fluorescein entered oocytes expressing DspE or AvrE, whereas eGFP could not

PAMAM G0
% inhibition at 10 mM (DspE): 68%

PAMAM G1
% inhibition at 10 mM (DspE): 71% | IC50 (DspE (MBP–DspE)): 31 µM | % inhibition at 10 mM (AvrE [2]): 93%
